According to ChEMBL document CHEMBL3817748, “Identification of novel peptoid agonists of fibroblast growth factor receptor using microarray-based screening” (Medchemcomm, 2016):
The source made the active and inactive calls. No cut-off for these calls is given here. *1 amine or outer side, *2 acyl side, *3 side chain or, on linkers, in order; H or OH if unused. Where a SMILES comes first, the peptide text is derived from it. [ ]: non-standard residue; d: D form. ξ: configuration not given here. Gly(N-(CH2)3N-pyrrolidone) = O=C(O)CNCCCN1CCCC1=O; Gly(N-CH2CH2C6H4-4Cl) = O=C(O)CNCCc1ccc(Cl)cc1; X1 = O=C(CN(Cc1cccc(C(F)(F)F)c1)[*:1])[*:2]; X3 = CC(c1ccccc1)N(CC(=O)[*:2])[*:1]; Nrpe = C[C@@H](NCC(=O)O)c1ccccc1; X2 = O=C(CN(CC1CCCO1)[*:1])[*:2]; NFurfurylGly = O=C(O)CNCc1ccco1; Gly(N-cPent) = O=C(O)CNC1CCCC1; NAllylGly = C=CCNCC(=O)O; Nphe = O=C(O)CNCc1ccccc1; Nlys = NCCCCNCC(=O)O; ξC = NC(CS)C(=O)O

How the values were obtained:
Homo sapiens [1] = organism: Homo sapiens; assay: Binding affinity to Fc-tagged FGFR1alpha (unknown origin) at 100 uM after 1 hr by Texas-red labeled anti-Fc detection based microarray assay
Homo sapiens [2] = organism: Homo sapiens; assay: Binding affinity to Fc-tagged FGFR1alpha (unknown origin) at 50 uM after 1 hr by Texas-red labeled anti-Fc detection based microarray assay
Homo sapiens [3] = organism: Homo sapiens; assay: Binding affinity to Fc-tagged FGFR1alpha (unknown origin) at 25 uM after 1 hr by Texas-red labeled anti-Fc detection based microarray assay
Homo sapiens [4] = organism: Homo sapiens; assay: Binding affinity to Fc-tagged FGFR1alpha (unknown origin) at 150 uM by Texas-red labeled anti-Fc detection based fluorescence microscopic analysis
[5] = biological target: Fibroblast growth factor receptor 1 (Homo sapiens) (UniProt P11362); assay: Agonist activity at FGFR1 in human MCF7 cells assessed as increase in Akt phosphorylation at 15 uM after 10 mins by Western blot analysis; type: cell-based
Chain of Fibroblast growth factor receptor 1 (Homo sapiens) (P11362 22-822 limits assumed): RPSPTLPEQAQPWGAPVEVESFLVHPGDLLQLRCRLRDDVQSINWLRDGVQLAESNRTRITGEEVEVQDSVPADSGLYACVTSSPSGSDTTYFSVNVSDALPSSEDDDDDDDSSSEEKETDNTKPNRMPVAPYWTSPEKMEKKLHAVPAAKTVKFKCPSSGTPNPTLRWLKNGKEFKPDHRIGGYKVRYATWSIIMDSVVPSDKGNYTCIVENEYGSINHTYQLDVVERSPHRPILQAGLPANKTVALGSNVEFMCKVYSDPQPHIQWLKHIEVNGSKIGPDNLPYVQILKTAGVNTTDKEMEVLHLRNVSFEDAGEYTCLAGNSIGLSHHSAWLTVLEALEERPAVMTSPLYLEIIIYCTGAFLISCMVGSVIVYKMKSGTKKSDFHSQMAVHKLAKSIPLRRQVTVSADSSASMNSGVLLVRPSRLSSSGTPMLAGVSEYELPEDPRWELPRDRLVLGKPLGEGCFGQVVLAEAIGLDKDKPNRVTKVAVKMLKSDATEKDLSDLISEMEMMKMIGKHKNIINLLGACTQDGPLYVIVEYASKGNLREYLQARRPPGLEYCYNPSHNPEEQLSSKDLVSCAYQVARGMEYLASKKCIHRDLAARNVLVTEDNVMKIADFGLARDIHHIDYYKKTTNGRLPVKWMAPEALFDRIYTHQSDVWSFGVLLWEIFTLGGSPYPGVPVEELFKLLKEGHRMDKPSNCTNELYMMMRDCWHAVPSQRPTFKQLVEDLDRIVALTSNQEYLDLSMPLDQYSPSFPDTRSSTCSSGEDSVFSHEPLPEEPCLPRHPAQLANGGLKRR

MCF7 = assay: Agonist activity at FGFR1alpha in human MCF7 cells assessed as increase in ERK phosphorylation at 15 uM after 10 mins by Western blot analysis; type: cell-based
[6] = biological target: Fibroblast growth factor receptor 2 (Homo sapiens) (UniProt P21802); assay: Agonist activity at FGFR2 in human MDA231 cells assessed as increase in Akt phosphorylation at 15 uM after 10 mins by Western blot analysis; type: cell-based
Chain of Fibroblast growth factor receptor 2 (Homo sapiens) (P21802 22-821 limits assumed): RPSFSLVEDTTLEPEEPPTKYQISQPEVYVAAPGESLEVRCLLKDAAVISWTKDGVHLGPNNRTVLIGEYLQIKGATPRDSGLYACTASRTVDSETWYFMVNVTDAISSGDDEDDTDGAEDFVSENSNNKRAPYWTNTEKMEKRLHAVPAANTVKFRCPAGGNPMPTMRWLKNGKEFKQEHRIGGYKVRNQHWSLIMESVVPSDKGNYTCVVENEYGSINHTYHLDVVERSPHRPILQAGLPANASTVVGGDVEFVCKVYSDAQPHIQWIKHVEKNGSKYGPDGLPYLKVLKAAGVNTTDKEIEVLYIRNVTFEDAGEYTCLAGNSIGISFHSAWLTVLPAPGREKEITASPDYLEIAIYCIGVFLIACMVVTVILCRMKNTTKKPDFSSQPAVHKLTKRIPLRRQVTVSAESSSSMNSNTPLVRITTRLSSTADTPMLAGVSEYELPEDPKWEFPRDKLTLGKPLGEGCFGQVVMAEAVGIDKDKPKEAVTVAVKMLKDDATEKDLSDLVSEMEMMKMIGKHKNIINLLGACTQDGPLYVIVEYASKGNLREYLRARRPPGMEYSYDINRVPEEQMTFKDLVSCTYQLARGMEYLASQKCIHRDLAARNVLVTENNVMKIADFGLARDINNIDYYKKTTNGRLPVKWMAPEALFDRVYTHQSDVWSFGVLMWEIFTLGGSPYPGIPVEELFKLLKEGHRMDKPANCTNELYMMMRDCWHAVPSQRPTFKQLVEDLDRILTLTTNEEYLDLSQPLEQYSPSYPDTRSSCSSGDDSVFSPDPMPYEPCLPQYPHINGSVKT

[7] = biological target: Fibroblast growth factor receptor 2 (Homo sapiens) (UniProt P21802); assay: Agonist activity at FGFR2 in human MDA231 cells assessed as increase in ERK phosphorylation at 15 uM after 10 mins by Western blot analysis; type: cell-based
[8] = biological target: Fibroblast growth factor receptor 1 (Mus musculus) (UniProt P16092); assay: Agonist activity at FGFR1 in mouse NIH-3T3 cells assessed as increase in Akt phosphorylation at 15 uM after 10 mins by Western blot analysis; type: cell-based; conditions: NIH3T3
Chain of Fibroblast growth factor receptor 1 (Mus musculus) (P16092 whole entry): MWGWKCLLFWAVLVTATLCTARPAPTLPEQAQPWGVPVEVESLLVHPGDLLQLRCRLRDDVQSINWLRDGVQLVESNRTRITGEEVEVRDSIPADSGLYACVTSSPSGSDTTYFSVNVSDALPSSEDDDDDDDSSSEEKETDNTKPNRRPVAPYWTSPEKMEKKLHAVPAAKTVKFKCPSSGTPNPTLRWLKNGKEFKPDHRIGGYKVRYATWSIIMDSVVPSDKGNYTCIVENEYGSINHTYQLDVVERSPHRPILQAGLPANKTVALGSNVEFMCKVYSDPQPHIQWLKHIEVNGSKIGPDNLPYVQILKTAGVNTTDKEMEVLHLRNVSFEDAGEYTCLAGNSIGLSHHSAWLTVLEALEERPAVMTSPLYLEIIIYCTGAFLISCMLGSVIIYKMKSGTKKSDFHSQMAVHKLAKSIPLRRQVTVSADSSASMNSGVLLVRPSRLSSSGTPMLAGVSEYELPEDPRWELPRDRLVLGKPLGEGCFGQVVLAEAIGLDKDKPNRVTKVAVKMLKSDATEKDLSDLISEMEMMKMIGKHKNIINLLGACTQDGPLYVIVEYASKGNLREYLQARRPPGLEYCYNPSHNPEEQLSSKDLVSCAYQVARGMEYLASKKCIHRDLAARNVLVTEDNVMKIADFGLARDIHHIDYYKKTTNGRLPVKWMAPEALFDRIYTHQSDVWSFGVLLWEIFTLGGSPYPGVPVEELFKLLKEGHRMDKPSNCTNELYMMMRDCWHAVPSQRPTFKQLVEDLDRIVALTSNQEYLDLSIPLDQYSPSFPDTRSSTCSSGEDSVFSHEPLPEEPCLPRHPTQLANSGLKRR

[9] = biological target: Fibroblast growth factor receptor 1 (Mus musculus) (UniProt P16092); assay: Agonist activity at FGFR1 in mouse NIH-3T3 cells assessed as increase in ERK phosphorylation at 15 uM after 10 mins by Western blot analysis; type: cell-based; conditions: NIH3T3
Homo sapiens [10] = organism: Homo sapiens; assay: Binding affinity to Fc-tagged FGFR1alpha (unknown origin) uM after 1 hr by FITC-labeled anti-Fc detection based microarray assay

Row | Activity (Homo sapiens [1]) | Activity (Homo sapiens [2]) | Activity (Homo sapiens [3]) | Activity (Homo sapiens [4]) | Activity [5] | Activity [6] | Activity [7] | Activity [8] | Activity [9] | Activity (Homo sapiens [10]) | Compound | Activity (MCF7)
1 | inactive | inactive | – | – | – | – | – | – | – | – | CC(NCC(=O)N(CC(=O)N(CC(=O)N(CC(=O)N(CC(=O)N(CC(=O)N(CCCCN)CC(=O)N(CCCCN)CC(=O)NC(CS)C(N)=O)Cc1cccc(C(F)(F)F)c1)Cc1cccc(C(F)(F)F)c1)CC1CCCO1)Cc1ccccc1)C1CCCC1)c1ccccc1 (stereo unspecified) | –
2 | Active | Active | Active | Active | Active | Active | Active | Active | Active | Active | C=CCN(CC(=O)N(CC(=O)N(CCCN1CCCC1=O)CC(=O)N(CCCCN)CC(=O)N(CCCCN)CC(=O)N[C@@H](CS)C(N)=O)CC1CCCO1)C(=O)CN(C(=O)CN(Cc1cccc(C(F)(F)F)c1)C(=O)CNCCCN1CCCC1=O)[C@H](C)c1ccccc1 (stereo partly specified) (H-[Gly(N-(CH2)3N-pyrrolidone)][X1][Nrpe][NAllylGly][X2][Gly(N-(CH2)3N-pyrrolidone)][Nlys][Nlys]C-NH2) | Active
3 | Active | Active | Active | – | inactive | inactive | inactive | inactive | inactive | Active | C=CCN(CC(=O)N(CC(=O)N(CCCCN)CC(=O)N(CCCCN)CC(=O)N[C@@H](CS)C(N)=O)Cc1ccco1)C(=O)CN(Cc1ccco1)C(=O)CN(CC1CCCO1)C(=O)CN(C(=O)CNCCc1ccc(Cl)cc1)C1CCCC1 (stereo partly specified) (H-[Gly(N-CH2CH2C6H4-4Cl)][Gly(N-cPent)][X2][NFurfurylGly][NAllylGly][NFurfurylGly][Nlys][Nlys]C-NH2) | inactive
4 | inactive | inactive | – | – | – | – | – | – | – | – | C=CCN(CC(=O)N(CC(=O)N(CC(=O)N(CC(=O)N(CCCCN)CC(=O)N(CCCCN)CC(=O)NC(CS)C(N)=O)C1CCCC1)Cc1ccco1)Cc1cccc(C(F)(F)F)c1)C(=O)CN(C(=O)CNCCc1ccc(Cl)cc1)C(C)c1ccccc1 (stereo unspecified) (H-[Gly(N-CH2CH2C6H4-4Cl)][X3][NAllylGly][X1][NFurfurylGly][Gly(N-cPent)][Nlys][Nlys][ξC]-NH2) | –
5 | Active | Active | Active | – | Active | Active | Active | Active | Active | Active | C=CCN(CC(=O)N(CCCCN)CC(=O)N(CCCCN)CC(=O)N[C@@H](CS)C(N)=O)C(=O)CN(C(=O)CN(Cc1ccccc1)C(=O)CN(C(=O)CN(Cc1ccccc1)C(=O)CNC1CCCC1)C1CCCC1)[C@H](C)c1ccccc1 (H-[Gly(N-cPent)][Nphe][Gly(N-cPent)][Nphe][Nrpe][NAllylGly][Nlys][Nlys]C-NH2) | Active
6 | Active | Active | Active | Active | Active | Active | Active | Active | Active | Active | C=CCN(CC(=O)N(CC(=O)N(CCCCN)CC(=O)N(CCCCN)CC(=O)N[C@@H](CS)C(N)=O)[C@H](C)c1ccccc1)C(=O)CN(Cc1ccco1)C(=O)CN(C(=O)CN(Cc1cccc(C(F)(F)F)c1)C(=O)CNCc1ccccc1)C1CCCC1 (H-[Nphe][X1][Gly(N-cPent)][NFurfurylGly][NAllylGly][Nrpe][Nlys][Nlys]C-NH2) | Active
